The results in this text go back to US9745289B2, “Aldosterone synthase inhibitors” (Boehringer Ingelheim International GmbH, priority 2014, dated 2017).

The term IC50 denotes the point on the concentration scale where inhibition reaches its midpoint. Read a high IC50 as weaker potency.

The target in the assay is cortisol synthase (CYP11B1) (Macaca fascicularis, UniProt A0A2K5ULY1). The experiment in a line: Inhibition of Cortisol Synthesis. Format: biochemical, cynomolgus monkey. The note with it: cynomolgus adrenal gland mitochondria; 150 units of CYP11B1, 11-deoxycortisol as substrate, cortisol measured as product. In short, it runs like this: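 Cynomolgus adrenal mitochondria as enzyme source (1 unit = 1 pmol product/h); 150 units CYP11B1 with 11-deoxycortisol substrate in 100 mM potassium phosphate pH 7.4, 1% DMSO, started with 1 mM NADPH, 90 min at 37 °C. Cortisol quantified by mass spectrometry; no-NADPH blank as 0%, no-compound as 100% activity.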
In turn, `CS(=O)(=O)Cc1cncc(C2COc3c(C#N)cccc3O2)c1` (single isomer, unassigned) [Cpd 37B, 2-(5-Methanesulfonylmethyl-pyridin-3-yl)-2,3-dihydro-benzo[1,4]dioxine-5-carbonitrile] came in with an IC50 of 8 µM.

For `CC(=O)N1CCC(Oc2cncc(C3COc4c(C#N)cccc4O3)c2)CC1` (single isomer, unassigned) [Cpd 38A, 2-[5-(1-Acetyl-piperidin-4-yloxy)-pyridin-3-yl]-2,3-dihydro-benzo[1,4]dioxine-5-carbonitrile], the midpoint of inhibition, the IC50, lay at 15 µM.

With `CC(=O)N1CCC(Oc2cncc(C3COc4c(C#N)cccc4O3)c2)CC1` (single isomer, unassigned) [Cpd 38B, 2-[5-(1-Acetyl-piperidin-4-yloxy)-pyridin-3-yl]-2,3-dihydro-benzo[1,4]dioxine-5-carbonitrile], 0.7 µM corresponded to half-maximal inhibition (IC50).

For `N#Cc1cccc2c1OCC(c1cncc(CNC(=O)C3CC3)c1)O2` (single isomer, unassigned) [Cpd 39A, Cyclopropanecarboxylic acid [5-(5-cyano-2,3-dihydro-benzo[1,4]dioxin-2-yl)-pyridin-3-ylmethyl]-amide], the IC50 came to 7.3 µM.

As for `N#Cc1cccc2c1OCC(c1cncc(CNC(=O)C3CC3)c1)O2` (single isomer, unassigned) [Cpd 39B, Cyclopropanecarboxylic acid [5-(5-cyano-2,3-dihydro-benzo[1,4]dioxin-2-yl)-pyridin-3-ylmethyl]-amide], the IC50 is over 30 µM.

Regarding `N#Cc1cccc2c1OCC(c1cncc(-c3ccc(S(N)(=O)=O)cc3)c1)O2` (single isomer, unassigned) [Cpd 40A, 4-[5-(5-Cyano-2,3-dihydro-benzo[1,4]dioxin-2-yl)-pyridin-3-yl]-benzenesulfonamide], the IC50 was over 30 µM.

Molecule `N#Cc1cccc2c1OCC(c1cncc(-c3ccc(S(N)(=O)=O)cc3)c1)O2` (single isomer, unassigned) [Cpd 40B, 4-[5-(5-Cyano-2,3-dihydro-benzo[1,4]dioxin-2-yl)-pyridin-3-yl]-benzenesulfonamide] displayed an IC50 of 11 µM.

Regarding `N#Cc1cccc2c1OCC(c1cncc(CN3CCCCS3(=O)=O)c1)O2` (single isomer, unassigned) [Cpd 41A, 2-[5-(1,1-Dioxo-1lambda6-[1,2]thiazinan-2-ylmethyl)-pyridin-3-yl]-2,3-dihydro-benzo[1,4]dioxine-5-carbonitrile], inhibition was half-maximal at 24 µM (IC50).

Take `N#Cc1cccc2c1OCC(c1cncc(CN3CCCCS3(=O)=O)c1)O2` (single isomer, unassigned) [Cpd 41B, 2-[5-(1,1-Dioxo-1lambda6-[1,2]thiazinan-2-ylmethyl)-pyridin-3-yl]-2,3-dihydro-benzo[1,4]dioxine-5-carbonitrile]: the midpoint of inhibition, the IC50, lay at 3.9 µM.

In turn, `CN(C)C(=O)COCc1cncc(C2COc3c(C#N)cccc3O2)c1` (single isomer, unassigned) [Cpd 42A, 2-[5-(5-Cyano-2,3-dihydro-benzo[1,4]dioxin-2-yl)-pyridin-3-ylmethoxy]-N,N-dimethyl-acetamide] came in with an IC50 of 18 µM.

In the case of `CN(C)C(=O)COCc1cncc(C2COc3c(C#N)cccc3O2)c1` (single isomer, unassigned) [Cpd 42B, 2-[5-(5-Cyano-2,3-dihydro-benzo[1,4]dioxin-2-yl)-pyridin-3-ylmethoxy]-N,N-dimethyl-acetamide], half-maximal inhibition (IC50) required 1.3 µM.

`N#Cc1cccc2c1OCC(c1cncc(CC(=O)N3CCOCC3)c1)O2` (single isomer, unassigned) [Cpd 43A, 2-[5-(2-Morpholin-4-yl-2-oxo-ethyl)-pyridin-3-yl]-2,3-dihydro-benzo[1,4]dioxine-5-carbonitrile] had an IC50 of 22 µM.

Regarding `N#Cc1cccc2c1OCC(c1cncc(CC(=O)N3CCOCC3)c1)O2` (single isomer, unassigned) [Cpd 43B, 2-[5-(2-Morpholin-4-yl-2-oxo-ethyl)-pyridin-3-yl]-2,3-dihydro-benzo[1,4]dioxine-5-carbonitrile], the IC50 is over 30 µM.

On to `CS(=O)(=O)COc1cncc(C2COc3c(C#N)cccc3O2)c1` (single isomer, unassigned) [Cpd 44A, 2-(5-Methanesulfonylmethoxy-pyridin-3-yl)-2,3-dihydro-benzo[1,4]dioxine-5-carbonitrile], for which 2.2 µM corresponded to half-maximal inhibition (IC50).

As to `CS(=O)(=O)COc1cncc(C2COc3c(C#N)cccc3O2)c1` (single isomer, unassigned) [Cpd 44B, 2-(5-Methanesulfonylmethoxy-pyridin-3-yl)-2,3-dihydro-benzo[1,4]dioxine-5-carbonitrile], inhibition was half-maximal at 13 µM (IC50).

`CCOc1cncc(C2COc3c(cccc3C(N)=O)O2)c1` (single isomer, unassigned) [Cpd 45A, 2-(5-ethoxy-pyridin-3-yl)-2,3-dihydro-benzo[1,4]dioxine-5-carboxylic acid amide] came in with an IC50 of 0.21 µM.

In turn, `CCOc1cncc(C2COc3c(cccc3C(N)=O)O2)c1` (single isomer, unassigned) [Cpd 45B, 2-(5-ethoxy-pyridin-3-yl)-2,3-dihydro-benzo[1,4]dioxine-5-carboxylic acid amide] returned an IC50 of 0.28 µM.

Regarding `NC(=O)c1cccc2c1OCC(c1cncc(O[C@@H]3CCOC3)c1)O2` (single isomer, unassigned) [Cpd 46A], the IC50 was found to be 7 µM.

On to `NC(=O)c1cccc2c1OCC(c1cncc(O[C@@H]3CCOC3)c1)O2` (single isomer, unassigned) [Cpd 46B], for which the IC50 was 4.2 µM.

Molecule `NC(=O)c1cccc2c1OCC(c1cncc(OC3CCOCC3)c1)O2` (single isomer, unassigned) [Cpd 47A, 2-[5-(Tetrahydro-pyran-4-yloxy)-pyridin-3-yl]-2,3-dihydro-benzo[1,4]dioxine-5-carboxylic acid amide] showed an IC50 of 8.5 µM.

Molecule `NC(=O)c1cccc2c1OCC(c1cncc(OC3CCOCC3)c1)O2` (single isomer, unassigned) [Cpd 47B, 2-[5-(Tetrahydro-pyran-4-yloxy)-pyridin-3-yl]-2,3-dihydro-benzo[1,4]dioxine-5-carboxylic acid amide] gave an IC50 of 1.2 µM.

`CC(C)C(=O)N1CCC(Oc2cncc(C3COc4c(cccc4C(N)=O)O3)c2)CC1` (single isomer, unassigned) [Cpd 48A, 2-[5-(1-isobutyryl-piperidin-4-yloxy)-pyridin-3-yl]-2,3-dihydro-benzo[1,4]dioxine-5-carboxylic acid amide] displayed an IC50 of 3.1 µM.

In the case of `CC(C)C(=O)N1CCC(Oc2cncc(C3COc4c(cccc4C(N)=O)O3)c2)CC1` (single isomer, unassigned) [Cpd 48B, 2-[5-(1-isobutyryl-piperidin-4-yloxy)-pyridin-3-yl]-2,3-dihydro-benzo[1,4]dioxine-5-carboxylic acid amide], the IC50 is 0.24 µM.

Turning to `NC(=O)c1cccc2c1OCC(c1cncc(C(O)C(F)(F)F)c1)O2` (single isomer, unassigned) [Cpd 49AA, 2-[5-(2,2,2-Trifluoro-1-hydroxy-ethyl)-pyridin-3-yl]-2,3-dihydro-benzo[1,4]dioxine-5-carboxylic acid amide], 3.2 µM corresponded to half-maximal inhibition (IC50).

Take `NC(=O)c1cccc2c1OCC(c1cncc(C(O)C(F)(F)F)c1)O2` (single isomer, unassigned) [Cpd 49AB, 2-[5-(2,2,2-Trifluoro-1-hydroxy-ethyl)-pyridin-3-yl]-2,3-dihydro-benzo[1,4]dioxine-5-carboxylic acid amide]: the midpoint of inhibition, the IC50, lay at 1.1 µM.
